Source: patent US20150065436A1, “INHIBITING INTERACTION BETWEEN HIF-1ALPHA AND p300/CBP WITH HYDROGEN BOND SURROGATE-BASED HELICES” (UNIVERSITY OF SOUTHERN CALIFORNIA, priority 2013, published 2015)

Columns and labels:
[1] = Plasma stability and biodistribution study; type: in vivo; settings: 1 mg/kg intravenously, female BALB/c mice
Procedure: Plasma stability and biodistribution studies were performed in 10-week-old female BALB/c mice (Charles River) with 3 mice per time point. Briefly, HBS 1 or peptide 3 was dissolved in 70 μL of sterile PBS and administered intravenously at a dose of 1 mg/kg. Then, 1 mL of blood was collected by cardiac puncture at euthanasia at the following time points: 30 min., 1 h., 2 h., 4 h., 6 h., 8 h., 12 h., 16 h., and 24 h. after drug administration. The experiments were performed under an approved IACUC protocol at the University of Southern California.
Samples were prepared by mixing 30 μL of plasma with 20 μL of 50% MeOH and 50% aqueous 1% formic acid. The mixture was vortexed and mixed with an additional 120 μL of 0.5% formic acid in MeOH/ACN (4:6) and 20 μL of 2.0 μg/mL isoproterenol in MeOH/1% aqueous formic acid (1:1) as an internal standard. The mixture was vortexed again for 2 minutes and centrifuged at 13,000 rpm for 4 minutes. Next, 20 μL of the supernatant was transferred to a new tube and mixed with 180 μL of 50% MeOH/ACN (4:6) and 50% aqueous 1% formic acid. Standard curves were prepared by mixing the plasma from three untreated mice with 20 μL of 50% MeOH and 50% aqueous 1% formic acid prepared with HBS 1 or peptide 3 at a concentration range of 0.05-2 μg/mL.
Samples were analyzed by LC/MS/MS using an Agilent 6210 time-of-flight LC/MS system. HPLC separation was achieved using a Prevail 3u C18 100×2.1 mm column (Grace Davison, Deerfield, Ill., USA). The column temperature was maintained at 20° C. The mobile phase consisted of A (5% acetonitrile and 95% of 0.05% aqueous formic acid) and B (5% of 05% aqueous formic acid and 95% acetonitrile). The following gradient program was used: 0% B (0 min, 0.125 ml/min), 100% B (17 min, 0.125 ml/min). The total run time was 35 minutes. […]
A mouse xenograft tumor model was used to assess the in vivo efficacy of HBS 1. The relative plasma stabilities of HBS 1 and linear peptide 3 in mice were first measured. […]

[2] = target: T1, 15N-labelled p300-CH1 (Homo sapiens, UniProt Q09472); assay: 1H-15N HSQC NMR titration; type: binding; settings: 69 μM CH1, CH1:HBS 1 ratios 1:1, 1:3, 1:5, 1:10
T1 construct: human p300 CH1 domain (amino acid residues 323-423); GST (cleaved yes); made in house; host or cells: E. coli BL21 (DE3)
Procedure: Protein samples were prepared as described above. Uniformly ^15N-labelled p300-CH1 was concentrated to 69 μM in NMR buffer (10 mM Tris pH 8, 50 mM NaCl, 2 mM DTT, and 207 μM ZnSO4) using a 3 kDa MWCO Amicon Ultra centrifugal filter (Millipore) and supplemented with 5% D2O. For HSQC titration experiments, data was collected on a 600 MHz Bruker four-channel NMR system at 25° C. and analyzed with the TopSpin software (Bruker). For Zn^2+ experiments, data were collected on Agilent 600 MHz at 25° C. and analyzed using Sparky3 (Univ. of California).
For the HSQC titration experiments, five and ten molar equivalents of HBS 1 in DMSO were added to ^15N-labelled p300-CH1, and the data were collected as described above. Mean chemical shift difference (ΔδNH) observed for ^1H and ^15N nuclei of various resonances were calculated as described in Williamson, “Using Chemical Shift Perturbation to Characterise Ligand Binding,” Prog. Nucl. Mag. Resonance Spectr. […]
To further characterize the interaction of HBS 1 with the CH1 domain, ^1H-^15N HSQC NMR titration experiments were performed with uniformly ^15N-labeled CH1. […] This cleft includes Trp403 and chemical shift perturbations observed for this residue support the results of the fluorescence titration experiments. […]

T1 sequence (Q09472 323-423): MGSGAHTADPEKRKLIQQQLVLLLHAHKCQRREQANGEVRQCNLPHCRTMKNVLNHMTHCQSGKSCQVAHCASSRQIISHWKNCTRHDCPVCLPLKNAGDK

Q: For `CC(C)C[C@H](NC(=O)[C@H](C)NC(=O)[C@H](CCCNC(=N)N)NC(=O)[C@H](C)N1CC=CCCC(=O)N[C@@H](CCC(=O)O)C(=O)N[C@@H](CC(C)C)C1=O)C(=O)N[C@@H](CC(=O)O)C(=O)N[C@@H](CCC(N)=O)C(N)=O` [HBS 1, XELA*RALDQ-NH2], which “pattern of plasma decay” value [1] is on record?
A: bi-exponential pattern of decay

Q: What about the “plasma concentrations over the same time intervals” value ([1]; 30 min to 24 h) of the same molecule?
A: much higher concentrations as compared to peptide 3

Q: What about the “shift in CH1 resonances on addition of compound” value [2] of the same molecule?
A: concentration-dependent shift in the resonances of several CH1 residues
